PubChem BioAssay (NCI)
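Following 48 hours of exposure in 96-well plates, responses at five concentrations were used to interpolate endpoints linearly. GI50: concentration for 50% inhibition of growth. At the TGI there is no net growth.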

Tests used:
Experiment in all cases: DTP human tumour cell line panel, 48 h
[1] = test system: CAKI-1 renal
[2] = test system: M14 melanoma
[3] = test system: NCI-H23 lung
[4] = test system: NCI-H522 lung
[5] = test system: SF-295 CNS
[6] = test system: SF-539 CNS
[7] = test system: SK-MEL-28 melanoma
[8] = test system: SN12C renal
[9] = test system: SNB-19 CNS
[10] = test system: UACC-257 melanoma

Compound | TGI [1] [µM] | TGI [2] [µM] | TGI [3] [µM] | TGI [4] [µM] | TGI [5] [µM] | TGI [6] [µM] | TGI [7] [µM] | TGI [8] [µM] | TGI [9] [µM] | TGI [10] [µM] | GI50 [1] [µM] | GI50 [2] [µM] | GI50 [3] [µM] | GI50 [4] [µM] | GI50 [5] [µM] | GI50 [6] [µM] | GI50 [7] [µM] | GI50 [8] [µM] | GI50 [9] [µM] | GI50 [10] [µM]
COc1cc([C@@H]2c3cc4c(cc3[C@@H](NCc3ccc(C#N)cc3)C3COC(=O)[C@@H]32)OCO4)cc(OC)c1O (stereo not given in full) | 8.83 | 6.55 | 1.43 | 2.83 | > 100 | 2.36 | 15.2 | 3.02 | > 100 | 33.9 |  |  |  |  |  |  |  |  |  | 
COC1CC2C=CC3C4OC2(/C(C)=C/C(C)C(C(C)O)OC1=O)C3C(O)C(C)C4OC(=O)c1ccc[nH]1 (stereo not given) | > 100 | > 100 | > 100 | > 100 | > 100 | > 100 | > 100 | > 100 | > 100 | > 100 |  |  |  |  |  |  |  |  |  | 
CC(C)c1cccc(C(C)C)c1N=C(N)C#N | > 100 | > 100 | > 100 | > 100 | > 100 | 50 | > 100 | > 100 | > 100 | > 79.6 |  |  |  |  |  |  |  |  |  | 
NC(=O)c1cc(Cl)ccc1NC(=O)c1ccccc1-c1ccccc1 | 64.3 | 3.96 | > 100 | 0.988 | 15.9 | 1.89 | > 100 | > 100 | > 100 | 73.2 | 0.735 | 0.427 | 2.01 | 0.289 | 0.347 | 0.319 | 3.65 | 1.78 | 0.709 | 12.8
NNC(=O)CCC(=O)Nc1ccc(Cl)cc1Cl | > 100 | > 100 | > 100 | > 100 | > 100 | > 100 | > 100 | > 100 | > 100 | > 100 |  |  |  |  |  |  |  |  |  | 
CN(C)c1ccc2cc(-c3cc4c(oc3=O)-c3ccccc3OC4O)c(=O)oc2c1 (stereo not given) | > 25 | 9.31 | 13.4 | 10.2 | 10.3 | > 25 | > 25 | 19.9 | 12.2 | 10.6 | 7.07 | 4.73 | 1.41 | 3.6 | 3.59 | 6.83 | 8.24 | 6.2 | 3.56 | 2.79
Cc1ccc(C(=O)CCC2C(=O)CC(C)(C)CC2=O)cc1 | 32 | > 100 | > 100 | 34.4 | > 100 | > 100 | > 100 | > 100 | > 100 | > 100 |  |  |  |  |  |  |  |  |  | 
CCOC(=O)C#Cc1ccc([N+](=O)[O-])cc1 | 3.47 | 5.34 | 7.55 | 3.09 | 25.6 | 6.69 | 23.4 | 3.39 | 25.7 | 10.8 |  |  |  |  |  |  |  |  |  | 
